# Source: patent US5561042A, “Diamine platinum naphthalimide complexes as antitumor agents” (Cancer Therapy and Research Center, priority 1995, dated 1996)
# pIC50: −log10 of the molar value.
# Columns and labels:
# [1] = system: SV40 DNA (Form I, negatively supercoiled); settings: comparison with compound 21; no own test described; cited from earlier work
# [2] = system: poly (dG.dC) - poly (dG.dC); experiment: Ethidium bromide displacement, poly(dG.dC)-poly(dG.dC); format: binding; settings: for Ratio (AT/GC): FI50 poly(dA.dT)-poly(dA.dT) / FI50 poly(dG.dC)-poly(dG.dC); for pIC50: ethidium bromide displacement, 1 μM DNA, 1.26 μM ethidium bromide, pH 7.0, read-out: FI50, poly (dG.dC) - poly (dG.dC)
# Method: (§1) A 10× Binding solution was prepared by combining 0.93 ml of an aqueous NaCl solution (5M), 2.0 ml of an aqueous Tris HCl (500 mM) solution, 0.1 ml of an EDTA solution (500 mM) and 46.97 ml of water. The resultant solution was 93 mM in NaCl, 20 mM in Tris HCl, and 1 mM in EDTA. Stock DNA solution were prepared as follows: Poly (dG·dC)-(dG·dC) (ε254=8.4/mM; 27-7910-02), poly(dA·dT)-(dA·dT) (ε262=6.6/mM; 27-7870-02), and lambda DNA (ε260-7.0/mM; 27-4111-01) were purchased from Pharmacia. Solutions were prepared by resuspending either poly (dG·dC)-(dG·dC) or poly(dA·dT)-(dA·dT)in 1 ml of 10× DNA Binding Solution. Lambda DNA is already in solution as purchased.
# (§2) Poly (dG·dC)-(dG·dC), poly(dA·dt)-(dA·dt) and lambda DNA concentrations were determined as follows: 980 μl of 10× DNA Binding Solution was pipetted into a 1 ml cuvette. A blank was run on the UV spectrophotometer. 20 μl of the DNA stock of unknown concentration was then added into the cuvette. The sample was then scanned between 210 nm to 500 nm and the absorbance recorded at 254 nm for poly(dG·dC)-(dG·dC), at 262 nm for poly(dA·dT)-(dA·dT) and at 260 nm for lambda DNA. The solution was transferred to a clean tube. This procedure was followed for three different solutions with the absorbance taken as the average of the three. The concentration of poly(dG·dC)-(dG·dC) stock was calculated to be A254 /8.4×1000 (in μM). The concentration of poly(dA·dT)-(dA·dT) stock was calculated to be A262 /6.6×1000 (in μM). The concentration of lambda DNA stock was calculated to be A260 /7.0×1000 (in μM).
# (§3) The binding of the bis-naphthalimides to DNA and to synthetic polynucleotide duplexes was determined by an ethidium bromide displacement assay that measures the reduction of fluorescence when ethidium bromide is displaced from DNA (Baguley, 1981). The fluorescence intensity of a 3 ml solution containing 9.3 mM NaCl, 2 mM Tris-HCl (pH 7.0), 100 μM EDTA, 1 μM DNA (in nucleotides) and 1.26 μM ethidium bromide in a quartz cuvette was measured at the excitation (546 nm) and emission (600 nm) wavelengths on a Shimadzu RF5000U spectrofluorometer. Graded concentrations of agent were then added and the fluorescence intensity was measured. The concentration of compound required to reduce the fluorescence intensity by 50% of that of control (FI50) was determined. Therefore, the lower the FI50 the stronger the binding affinity a particular compound has for DNA.
# (§4) The ability of bis-naphthalimides of the present invention and the known anti-cancer agents compound 22 and DMP840, (R,R)-2,2'[1,2-ethanediylbis[imino(1-methyl-2,1-ethanediyl)]]-bis[5-nitro- 1H benz[de]isoquinoline-1,3-(2H)dione]dimethanesulfonate, to bind to DNA and to synthetic oligonucleotide duplexes was measured using an ethidium bromide displacement assay. Ethidium bromide, a known DNA intercalator, has no fluorescence in the absence of DNA; however, fluorescence intensity increases when ethidium bromide binds to DNA. The ethidium bromide displacement assay measures the decrease in fluorescence intensity caused by DNA-bound ethidium bromide with DNA interacting agents.
# [3] = system: Murine B16 melanoma cell line; experiment: In vitro growth inhibition (MTT), B16 melanoma; format: cell-based; settings: for pIC50: Mus musculus, B16, 72 h, MTT, 3 days
# Description: (§5) P388 murine leukemic cell line was obtained from the DCT Tumor Repository (National Cancer Institute, Frederick Cancer Research and Development, Frederick Md. 21702). HT29 Human Colon Carcinoma cell line was obtained from the American Type Culture Collection (12301 Parklawn Drive, Rockville, Md. 20852). B16 Melanoma cell line was obtained from DuPont Merck Pharmaceutical Company (Glenolden, Pa. 19036). MCF-7 Human Breast Carcinoma cell line was a gift from Dr. K. Osborne (Department of Medicine, The University of Texas Health Science Center at San Antonio, San Antonio, Tex. 78284). All cell lines were incubated at 37° C. in a humidified atmosphere of 5% CO2 -95% air. Murine B16 melanoma cell line was grown in RPMI 1640 medium supplemented with 10% heat-inactivated fetal bovine serum, 2 mM L-glutamine, 50 units/ml penicillin, 50 μg/ml streptomycin, 25 μg/ml gentamycin, 0.75% sodium bicarbonate, 10 mM HEPES buffer (pH 7.4), and 0.06 mg/ml AntiPPLO. Murine P388 leukemic and the human HT-29 colon adenocarcinoma cell lines were maintained in RPMI 1640 medium supplemented with 10% heat-inactivated fetal bovine serum. MCF-7M human breast adenocarcinoma was maintained in IMEM medium supplemented with 5% non heat-inactivated fetal bovine serum and 1 nM insulin.
# (§6) Exponentially growing cells (1-2×10^3 cells, unless specified otherwise) in 0.1 ml medium were seeded on day 0 in a 96-well microtiter plate. On day 1, 0.1 ml aliquots of medium containing graded concentrations of test compounds were added in duplicate to the cell plates. After incubation at 37° C. in a humidified incubator for 3 days (P388, B16) or 6 days (HT-29, MCF-7M), the plates were centrifuged briefly and 100 μl of the growth medium was removed. Cell cultures were incubated with 50 μl of 3-(4,5-dimethylthiazol-2-yl)-2,5-diphenyl-tetrazolium bromide [MTT, 1 mg/ml in Dulbecco's phosphate buffered saline (PBS)] for 4 hr at 37° C. The resulting purple formazan precipitate was solubilized with 200 μl of 0.04N HCl in isopropyl alcohol. Absorbance was monitored in a BioRad Model 3550 Microplate Reader at a test wavelength of 570 nm and a reference wavelength of 630 nm. The absorbance was transferred to a PC 486 computer. The IC50 values were determined by a computer program (EZ-ED50) that fit all of the data to the following four-parameterlogistic equation:
# (§7) Y=((Am -Ao)/(1+(X/IC50)^n))+Ao
# (§8) where Am is the absorbance of control cells, Ao is the absorbance of cells in the presence of highest agent concentration, Y is the observed absorbance, X is the agent concentration, IC50 is the concentration of agent that inhibits the cell growth by 50% of control cells (based on the absorbance) and n is the slope of the curve.
# Lambda DNA = experiment: Ethidium bromide displacement, lambda DNA; format: binding; settings: 1 μM DNA, 1.26 μM ethidium bromide, pH 7.0, read-out: FI50, Lambda DNA
# Method: as §1, §2, §3, §4
# DNA = experiment: Ethidium bromide displacement, DNA binding in general
# Method: as §3
# as §4, with “The ethidium bromide displacement assay measures the decrease in fluorescence intensity caused by DNA-bound ethidium bromide with DNA interacting agents.” left out
# [4] = molecular target: poly (dA.dT) - poly (dA.dT); experiment: Ethidium bromide displacement, poly(dA.dT)-poly(dA.dT); format: binding; settings: 1 μM DNA, 1.26 μM ethidium bromide, pH 7.0, read-out: FI50, poly (dA.dT) - poly (dA.dT)
# Method: as §1, §2, §3, §4
# [5] = system: P388 murine leukemic cell line; experiment: In vitro growth inhibition (MTT), P388 leukemia; format: cell-based; settings: Mus musculus, P388, 72 h, 3 days
# Description: as §5, §6, §7, §8
# LX-1 lung carcinoma = settings: in vivo; cited from earlier work
# [6] = system: MX-1 human breast carcinoma; settings: in vivo; cited from earlier work
# [7] = cited from earlier work
# [8] = in vivo; cited from earlier work
# [9] = system: solid tumor xenografts, human and murine leukemia, doxorubicin resistant cell lines, colon carcinoma cells; settings: cited from earlier work
# B16 murine melanoma = experiment: B16 melanoma in vivo, survival of B6D2F1 mice; settings: q.d. × 5, i.p.; for T/C: mean survival treated/control
# Method: B6D2F1 mice received i.p. inocula of B16 murine melanoma brei prepared from B16 tumors growing subcutaneously in mice (day 0). On day 1, rumored mice were treated with drugs or vehicle control; the route of drug administration and schedule were selected as appropriate for the study in question. If dosing information for agents was not available, the maximum tolerated dose (MTD) was determined in initial dose finding experiments in non-tumored mice. In a typical experiment, drugs were given at their MTD and 1/2 MTD doses i.p. on a daily×5 schedule.
# The mean survival times of all groups were calculated, and results were expressed as mean survival of treated mice/mean survival of control mice (T/C)×100%. A T/C value of 150 means that the mice in the treated group lived 50% longer than those of the control group; this is sometimes referred to as the increase in life space, or ILS value.
# Mice that survived for 60 days were considered long term survivors, or cures, in the B16 model. The universally accepted cut-off for activity in this model, which has been used for years by the National Cancer Institute, is T/C=125.
# Statistics were performed on the data using primarily the log rank p-value test.
# [10] = system: MCF-7 Human Breast Carcinoma cell line; experiment: In vitro growth inhibition (MTT), MCF-7 breast carcinoma; format: cell-based; settings: Homo sapiens, MCF7, 144 h, 6 days
# Description: as §5, §6, §7, §8
# [11] = system: DLD-2 human colon adenocarcinoma; settings: in vivo; cited from earlier work
# [12] = human, in vivo; cited from earlier work
# [13] = human, in vivo; cited from earlier work; remark: listed apart in the source
# B16 melanoma = settings: cited from earlier work
# topoisomerase II = settings: cited from earlier work
compound,measurement,setting,value
N.N.[Cl][Pt][Cl] [Cisplatin],effect on DNA conformation (in words),[1],does not show such an effect and causes unwinding only after prolonged incubation
"O=C1c2cccc3cc([N+](=O)[O-])cc(c23)C(=O)N1CCOCCOCCN1C(=O)c2cccc3cc([N+](=O)[O-])cc(c23)C1=O [Compound 19, 5-[2-(3-Nitronaphthalene-1,8-dicarboximido)ethoxy]-1-(3-nitronaphthalene-1,8-dicarboximido)-3-oxapentane]",Ratio (AT/GC),[2],1.7
same,pIC50,[2],4.31
same,anticancer activity against B16 melanoma in vitro (in words),[3],potent anticancer activity against this melanoma type
same,pIC50,[3],7.29
same,pIC50,Lambda DNA,4.25
same,DNA binding (in words),DNA,did not bind to DNA
same,pIC50,[4],4.08
"C[C@H](CNCCNC[C@@H](C)N1C(=O)c2cccc3cc([N+](=O)[O-])cc(c23)C1=O)N1C(=O)c2cccc3cc([N+](=O)[O-])cc(c23)C1=O [DMP840, (R,R)-2,2'[1,2-ethanediylbis[imino (1-methyl-2,1-ethanediyl)]]-bis[5-nitro-1H-benz[de]isoquinoline-1,3-(2H)-dione]dimethanesulfonate]",pIC50,[5],8.22
same,"anti-tumor efficacy, LX-1 (in words)",LX-1 lung carcinoma,anti-tumor efficacy in vivo
same,"anti-tumor activity, MX-1 (in words)",[6],anti-tumor efficacy in vivo
same,water solubility,[7],3400 µg/mL
same,Ratio (AT/GC),[2],35.2
same,pIC50,[2],7.04
same,pIC50,[3],7.57
same,irreversible toxicities (in words),[8],no irreversible toxicities
same,pIC50,Lambda DNA,7.14
same,anti-tumor efficacy in vivo (in words),[9],anti-tumor efficacy in vivo
same,60-Day Survivors,B16 murine melanoma; 5 mg/kg,0
same,Wt. Ch. (%) (Day 7),B16 murine melanoma; 5 mg/kg,+4.6%
same,T/C,B16 murine melanoma; 5 mg/kg,156%
same,60-Day Survivors,B16 murine melanoma; 10 mg/kg,0
same,Wt. Ch. (%) (Day 7),B16 murine melanoma; 10 mg/kg,-0.33%
same,T/C,B16 murine melanoma; 10 mg/kg,179%
same,pIC50,[10],8.15
same,pIC50,[4],5.48
same,"anti-tumor activity, DLD-2 (in words)",[11],anti-tumor efficacy in vivo
COc1cccc2c1C(=O)c1c(O)c3c(c(O)c1C2=O)C[C@@](O)(C(=O)CO)C[C@@H]3O[C@H]1C[C@H](N)[C@H](O)[C@H](C)O1 [Doxorubicin],cardiomyopathy (in words),[12],unusual cardiomyopathy
O=C1c2c(O)cccc2-c2nn(CCNCCO)c3ccc(NCCNCCO)c1c23 [DuP 941],clinical anti-tumor activity (in words),[13],exhibit clinical anti-tumor activity
CS(=O)(=O)O.O=C1c2cccc3cc([N+](=O)[O-])cc(c23)C(=O)N1CCCCNCCCN1C(=O)c2cccc3cc([N+](=O)[O-])cc(c23)C1=O [XB596],"anti-tumor activity, MX-1 (in words)",[6],demonstrated in vivo anti-tumor activity
same,water solubility,[7],45 µg/mL
same,activity against B16 melanoma (in words),B16 melanoma,ineffective against B16 melanoma
same,"anti-tumor activity, DLD-2 (in words)",[11],demonstrated in vivo anti-tumor activity
CN(C)CCN1C(=O)c2cccc3cc(N)cc(c23)C1=O [amonafide],inhibition of topoisomerase II (in words),topoisomerase II,inhibit topoisomerase II
COc1cc(NS(C)(=O)=O)ccc1Nc1c2ccccc2nc2ccccc12 [amsacrine],clinical anti-tumor activity (in words),[13],exhibit clinical anti-tumor activity
COc1cccc2c1C(=O)c1c(O)c3c(c(O)c1C2=O)C[C@@](O)(C(C)=O)C[C@@H]3O[C@H]1C[C@H](N)[C@H](O)[C@H](C)O1 [daunorubicin],cardiomyopathy (in words),[12],unusual cardiomyopathy
